US10322087B2, “Targeted liposomal delivery of cGMP analogues” (priority 2015, dated 2019)
Entries after “also recorded” stand apart in the source; their conditions may differ.

Tests used:
wt explant cultures = test: Organotypic retinal explant culture, wt; format: cell-based, mouse; conditions: up to 50 μM
Excerpt: (§1) For biochemical analyses and comparisons between models and wt tissues, we typically use material from ages corresponding to the onset of retinal degeneration. Retinal tissue is obtained from post-natal day 5 (PN5) animals, from which, after sacrifice, the eyes are enucleated and retinae cultured as retinal explants. In brief, the retina with the retinal pigment epithelium (RPE) still attached is isolated and subsequently transferred to Millicell culture dish filter inserts (Millipore AB, Solna, Sweden; PIHA03050), with the RPE layer facing the culturing membrane. The explants are then incubated in custom made R16 nutrient medium at 37° C. The nutrient medium has a volume of 1.5 ml per dish, which is replaced with fresh medium usually every second day (unless the exact culturing paradigm requires otherwise) during the culturing period.
(§2) PN5 explants were allowed to adjust to culture conditions for two days in vitro (DIV), after which they were subjected to treatments of interest. […]
(§3) In both cases the results were captured by means of a microscope and digital camera, analysed manually or semi-automatically, and this was then followed by calculations for statistical significance of the recorded data in principle as published previously (Arango-Gonzalez et al. 2014, PLoS One. 9, e112142).

[1] = tested on: retinal explants of rd2 mouse model; test: Organotypic retinal explant culture, rd2; format: cell-based; conditions: data not shown
Excerpt: as §1, §2, §3

PKG2 = PKG2 (Homo sapiens, UniProt Q13237); test: Inhibitory constants for DF003, PKG2; format: biochemical
Sequence of PKG2 (Q13237 whole entry, canonical isoform): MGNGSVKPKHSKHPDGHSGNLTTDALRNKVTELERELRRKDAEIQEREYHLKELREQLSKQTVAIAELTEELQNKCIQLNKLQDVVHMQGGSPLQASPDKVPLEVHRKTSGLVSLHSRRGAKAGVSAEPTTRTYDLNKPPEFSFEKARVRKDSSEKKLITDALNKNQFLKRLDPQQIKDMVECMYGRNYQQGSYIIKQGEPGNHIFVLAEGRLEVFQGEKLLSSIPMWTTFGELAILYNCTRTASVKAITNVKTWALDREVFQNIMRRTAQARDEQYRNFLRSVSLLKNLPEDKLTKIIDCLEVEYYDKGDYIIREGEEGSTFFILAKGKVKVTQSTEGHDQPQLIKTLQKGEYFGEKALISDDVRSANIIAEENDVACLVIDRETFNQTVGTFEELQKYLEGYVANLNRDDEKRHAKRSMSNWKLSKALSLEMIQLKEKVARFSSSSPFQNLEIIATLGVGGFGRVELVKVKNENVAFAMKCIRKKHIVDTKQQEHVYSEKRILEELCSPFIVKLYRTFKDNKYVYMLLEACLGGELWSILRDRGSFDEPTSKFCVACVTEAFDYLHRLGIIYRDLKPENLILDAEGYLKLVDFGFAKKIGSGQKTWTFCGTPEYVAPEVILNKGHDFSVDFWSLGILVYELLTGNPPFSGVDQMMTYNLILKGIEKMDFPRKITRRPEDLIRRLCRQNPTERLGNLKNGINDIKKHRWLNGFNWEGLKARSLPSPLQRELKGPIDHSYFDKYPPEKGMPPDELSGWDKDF
Excerpt: (§4) The active compound DF003 is an analogue of cGMP, blocking PKG activity with high specificity. This is particularly true for the PKG1α and PKG1β isoforms, while PKG2 is less well inhibited. The inhibitory constants for the two other potential targets CNGC and protein kinase A (PKA) isoforms 1 and 2 are 2-3 log units higher (Table 2) than those for PKG isoforms. cGMP and its analogues are targeting PKG and CNGC but could potentially also interfere with PKA, PDE or even HCN channel activity. The table gives the inhibitory constants (Ki) of DF003 for these targets and (where available) the IC50 values.

[2] = tested on: retinal explants of rd10 model; test: Organotypic retinal explant culture, rd10; format: cell-based, mouse; conditions: data not shown
Excerpt: as §1, §2, §3

PKA2 = test: Inhibitory constants for DF003, PKA2; format: biochemical
Excerpt: as §4

PKG1α = PKG1α (Homo sapiens, UniProt Q13976); test: Inhibitory constants for DF003, PKG1α; format: biochemical
Sequence of PKG1α (Q13976 whole entry): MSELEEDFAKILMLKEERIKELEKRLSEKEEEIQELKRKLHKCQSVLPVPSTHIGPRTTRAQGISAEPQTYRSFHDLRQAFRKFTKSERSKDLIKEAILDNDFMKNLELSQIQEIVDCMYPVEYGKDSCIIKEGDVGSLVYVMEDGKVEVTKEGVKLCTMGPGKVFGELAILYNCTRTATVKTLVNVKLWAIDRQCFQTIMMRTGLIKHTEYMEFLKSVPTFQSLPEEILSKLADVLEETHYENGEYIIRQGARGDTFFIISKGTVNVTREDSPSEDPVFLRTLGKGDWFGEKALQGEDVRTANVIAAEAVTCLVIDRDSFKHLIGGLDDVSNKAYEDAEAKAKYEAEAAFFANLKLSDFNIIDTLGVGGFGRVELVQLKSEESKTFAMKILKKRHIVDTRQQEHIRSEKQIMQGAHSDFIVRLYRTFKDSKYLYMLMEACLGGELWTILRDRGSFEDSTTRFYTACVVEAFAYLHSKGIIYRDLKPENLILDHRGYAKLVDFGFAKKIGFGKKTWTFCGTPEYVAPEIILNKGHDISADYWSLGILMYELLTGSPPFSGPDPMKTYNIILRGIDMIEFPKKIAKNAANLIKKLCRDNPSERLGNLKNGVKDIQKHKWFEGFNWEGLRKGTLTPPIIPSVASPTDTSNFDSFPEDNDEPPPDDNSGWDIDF
Excerpt: as §4

CNGC = test: Inhibitory constants for DF003, CNGC; format: biochemical
Excerpt: as §4

PDE1B = PDE1B (Homo sapiens, UniProt Q01064); test: Inhibitory constants for DF003, PDE1B; format: biochemical
Sequence of PDE1B (Q01064 whole entry, species assumed): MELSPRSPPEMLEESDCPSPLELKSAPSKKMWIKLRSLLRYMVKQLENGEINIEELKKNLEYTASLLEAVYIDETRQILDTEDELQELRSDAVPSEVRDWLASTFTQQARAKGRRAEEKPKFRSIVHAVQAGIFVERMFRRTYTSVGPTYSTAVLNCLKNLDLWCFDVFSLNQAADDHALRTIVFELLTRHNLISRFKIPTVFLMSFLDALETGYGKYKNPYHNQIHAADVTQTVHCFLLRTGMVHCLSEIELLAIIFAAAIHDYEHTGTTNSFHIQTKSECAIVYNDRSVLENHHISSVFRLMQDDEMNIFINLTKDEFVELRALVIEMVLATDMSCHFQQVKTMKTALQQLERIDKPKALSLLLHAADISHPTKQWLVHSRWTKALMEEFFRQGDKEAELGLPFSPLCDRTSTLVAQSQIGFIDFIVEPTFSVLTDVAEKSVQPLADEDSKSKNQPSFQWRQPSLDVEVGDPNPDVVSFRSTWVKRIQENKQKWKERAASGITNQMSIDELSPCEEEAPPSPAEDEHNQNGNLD
Excerpt: as §4

[3] = tested on: organotypic rd1 retinal explant cultures; test: Organotypic retinal explant culture, rd1; format: cell-based, mouse
Excerpt: as §1, §2, §3

PKG1β = PKG1β (Homo sapiens, UniProt Q13976); test: Inhibitory constants for DF003, PKG1β; format: biochemical
Sequence of PKG1β (Q13976 1-686 isoform Q13976-2): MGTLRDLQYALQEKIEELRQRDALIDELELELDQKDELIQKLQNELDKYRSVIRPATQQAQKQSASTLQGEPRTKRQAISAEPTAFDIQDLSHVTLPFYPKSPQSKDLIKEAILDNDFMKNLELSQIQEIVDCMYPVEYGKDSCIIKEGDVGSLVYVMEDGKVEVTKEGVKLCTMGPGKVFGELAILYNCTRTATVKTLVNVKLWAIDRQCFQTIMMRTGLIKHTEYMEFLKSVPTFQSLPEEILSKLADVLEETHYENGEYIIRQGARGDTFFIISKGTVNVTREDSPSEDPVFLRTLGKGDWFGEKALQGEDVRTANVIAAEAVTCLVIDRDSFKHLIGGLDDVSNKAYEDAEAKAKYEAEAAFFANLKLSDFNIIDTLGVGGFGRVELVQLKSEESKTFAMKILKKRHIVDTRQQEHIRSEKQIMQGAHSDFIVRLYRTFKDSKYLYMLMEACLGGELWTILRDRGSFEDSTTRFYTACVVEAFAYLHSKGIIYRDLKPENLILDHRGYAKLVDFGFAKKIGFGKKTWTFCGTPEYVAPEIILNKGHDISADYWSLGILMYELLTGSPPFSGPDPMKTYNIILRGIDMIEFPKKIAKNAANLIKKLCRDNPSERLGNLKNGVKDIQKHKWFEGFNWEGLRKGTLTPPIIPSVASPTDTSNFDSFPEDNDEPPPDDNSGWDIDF
Excerpt: as §4

PDE5 = PDE5 (Homo sapiens, UniProt O76074); test: Inhibitory constants for DF003, PDE5; format: biochemical
Excerpt: as §4

PDE2 = PDE2 (Homo sapiens, UniProt O00408); test: Inhibitory constants for DF003, PDE2; format: biochemical
Sequence of PDE2 (O00408 whole entry): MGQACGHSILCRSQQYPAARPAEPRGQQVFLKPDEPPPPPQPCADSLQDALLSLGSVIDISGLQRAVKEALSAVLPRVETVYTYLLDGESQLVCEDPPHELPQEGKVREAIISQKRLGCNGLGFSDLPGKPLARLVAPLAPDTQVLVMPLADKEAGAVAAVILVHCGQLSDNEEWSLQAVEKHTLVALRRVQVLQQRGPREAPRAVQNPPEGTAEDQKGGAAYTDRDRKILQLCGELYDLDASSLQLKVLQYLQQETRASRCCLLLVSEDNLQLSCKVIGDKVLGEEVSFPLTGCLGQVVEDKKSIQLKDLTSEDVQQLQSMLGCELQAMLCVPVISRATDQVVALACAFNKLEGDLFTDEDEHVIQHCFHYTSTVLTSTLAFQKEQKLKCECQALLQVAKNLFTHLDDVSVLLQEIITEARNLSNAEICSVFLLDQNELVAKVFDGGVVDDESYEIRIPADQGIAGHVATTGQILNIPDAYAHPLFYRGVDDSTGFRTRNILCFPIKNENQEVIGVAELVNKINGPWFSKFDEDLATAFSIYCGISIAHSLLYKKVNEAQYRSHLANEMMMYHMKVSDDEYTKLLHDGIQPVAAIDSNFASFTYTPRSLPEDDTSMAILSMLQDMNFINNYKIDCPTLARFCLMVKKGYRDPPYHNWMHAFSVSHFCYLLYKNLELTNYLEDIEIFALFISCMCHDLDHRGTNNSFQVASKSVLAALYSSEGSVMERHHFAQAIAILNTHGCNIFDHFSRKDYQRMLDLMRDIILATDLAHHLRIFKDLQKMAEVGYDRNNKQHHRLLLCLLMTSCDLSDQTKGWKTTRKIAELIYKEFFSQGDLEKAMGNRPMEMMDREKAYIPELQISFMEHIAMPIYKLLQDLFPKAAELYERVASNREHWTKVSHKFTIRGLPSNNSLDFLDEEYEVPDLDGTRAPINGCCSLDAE
Excerpt: as §4

PDE10 = PDE10 (Homo sapiens, UniProt Q9Y233); test: Inhibitory constants for DF003, PDE10; format: biochemical
Sequence of PDE10 (Q9Y233 whole entry): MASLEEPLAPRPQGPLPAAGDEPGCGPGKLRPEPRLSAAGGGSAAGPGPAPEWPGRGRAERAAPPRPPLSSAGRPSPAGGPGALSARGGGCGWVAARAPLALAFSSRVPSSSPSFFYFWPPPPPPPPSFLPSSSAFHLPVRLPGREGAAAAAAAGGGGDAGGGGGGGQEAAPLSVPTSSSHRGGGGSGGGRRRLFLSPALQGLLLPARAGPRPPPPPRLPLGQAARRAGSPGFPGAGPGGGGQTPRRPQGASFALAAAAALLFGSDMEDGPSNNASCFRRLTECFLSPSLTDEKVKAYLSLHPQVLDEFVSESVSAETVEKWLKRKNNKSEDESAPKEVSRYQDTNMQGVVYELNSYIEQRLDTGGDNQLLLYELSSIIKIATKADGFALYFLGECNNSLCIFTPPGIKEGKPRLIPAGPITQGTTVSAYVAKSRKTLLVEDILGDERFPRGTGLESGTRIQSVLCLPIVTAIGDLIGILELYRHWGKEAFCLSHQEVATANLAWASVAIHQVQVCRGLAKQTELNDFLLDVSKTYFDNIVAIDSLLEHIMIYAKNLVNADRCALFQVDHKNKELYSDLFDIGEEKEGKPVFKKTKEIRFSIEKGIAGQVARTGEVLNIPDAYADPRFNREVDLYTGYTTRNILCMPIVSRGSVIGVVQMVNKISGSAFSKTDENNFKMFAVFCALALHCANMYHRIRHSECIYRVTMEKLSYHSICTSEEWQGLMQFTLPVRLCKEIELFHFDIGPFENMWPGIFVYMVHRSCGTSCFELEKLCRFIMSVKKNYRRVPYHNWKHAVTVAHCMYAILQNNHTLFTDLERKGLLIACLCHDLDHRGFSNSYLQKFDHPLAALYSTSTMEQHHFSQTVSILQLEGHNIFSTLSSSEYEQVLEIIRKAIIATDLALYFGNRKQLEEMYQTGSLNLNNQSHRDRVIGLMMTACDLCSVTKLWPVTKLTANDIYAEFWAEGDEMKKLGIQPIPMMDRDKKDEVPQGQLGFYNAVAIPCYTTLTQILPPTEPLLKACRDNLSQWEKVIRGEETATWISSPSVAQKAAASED
Excerpt: as §4

[4] = Pharmacokinetic study in adult rats; conditions: rat, blood, 20 mg/kg, single injection 20 mg/kg, read-out: in vivo half-life
Protocol: A pharmacokinetic study was performed in adult rats (3 months old) that received a single injection of either free DF003 or LP-DF003 at an initial dose of 20 mg/kg.

PDE4 = test: Inhibitory constants for DF003, PDE4; format: biochemical
Excerpt: as §4

[5] = tested on: rd1 photoreceptor-like cells; test: Primary retinal cell culture, cell death (Ethidium homodimer), rd1; format: cell-based, mouse
Protocol: (§5) Different doses of DF003 and LP-DF003 were tested in vitro on a primary culture of retinal cells derived from the rd1 mouse model. About 20-30% of the primary cells can be differentiated into rod photoreceptors (Demontis et al. 2012, PLoS One. 7, e33338; Giordano et al. 2007, Mol. Vis. 13, 1842-1850). Retinal stem cells from adult wt and rd1 mice were isolated from the ciliary epithelium after treatment with 2 mg/ml dispase (20 min) followed by 1.33 mg/ml trypsin 0.67 mg/ml, hyaluronidase and 0.13 mg/ml kynurenic acid (10 min) and cultured for a week in serum free medium containing 20 ng/ml basic FGF, 2 μg/ml heparin, 0.6% glucose, N2 hormone mix in DMEM-F12 to form neurospheres (Giordano et al., 2007, supra). Retinal neurospheres were then plated on glass slides coated with extracellular matrix (ECM, Sigma) in DMEM-F12 supplemented with 20 ng/ml FGF for 4 days. […] Cell death was evaluated by staining of cells for 2 minutes with 2 μM Ethidium homodimer and counterstaining of nuclei with DAPI (4′,6-diamidino-2-phenylindole, Sigma). Slides were mounted with mowioll 4-88 (Sigma) and analysed at a Zeiss Axioskop 40 fluorescence microscope. Ethidium homodimer positive cells were counted in each slide and expressed as percentages of the total number of cells (DAPI stained) per slide. […]

rd1 mice = test: In vivo retinitis pigmentosa model, rd1 mouse; conditions: PN14, intraperitoneal 50 mg/kg once per day, vs untreated rd1
Protocol: Before treatment with drug or drug/DDS combinations, the animals were anesthetized with diethyl-ether. For systemic treatment, 0.9% NaCl solution containing liposomal DDS/drug formulation were injected either into the tail vein (caudal vein; intravenous; i.v.; 50 μl) or into the peritoneum (intraperitoneal; i.p.; 200 μl) of the anesthetized animal. In rd10 mice, a local intravitreal (IVT) treatment was also tested. Here, the animals received a 0.5 μl injection into the vitreous body of one eye, while the other eye was kept as untreated, contralateral control. For both i.p. and IVT treatments a liposomal formulation not containing DF003 (i.e. “empty” liposomes) was used as an additional control.
The in vivo treatment was performed initially on rd1 animals, but later extended to other animal models (rd2, rd10, cpfl1, Rho P23H). […]
At various post-treatment time-points (see Table 1), in vivo optic coherence tomography (OCT) and scanning laser ophthalmoscopy (SLO) analysis was used for direct, non-invasive imaging of retinal morphology (OCT) and of fluorescently labelled drugs (SLO) or drug/DDS combinations to determine the distribution and uptake of drug in the retina. In addition, retinal function was assessed using electroretinographic (ERG) recordings. […]

[6] = tested on: wild-type (wt) photoreceptor-like cells; test: Primary retinal cell culture, wild-type; format: cell-based, mouse; conditions: up to the highest concentration used, 50 μM
Protocol: as §5

PKA1 = test: Inhibitory constants for DF003, PKA1; format: biochemical
Excerpt: as §4

[7] = tested on: rd1 and rd2 photoreceptors; conditions: in vitro and in vivo mouse retinitis pigmentosa models; cited from earlier work

Which results are given for `O=c1c2nc(Br)n(C3OC4COP(O)(=S)OC4C3O)c2nc2[nH]c(-c3ccccc3)cn12` [DF003, Sodium, 3-[(4 aR,6R,7R,7aS)-7-hydroxy-2-oxido-2-sulfanylidene-4a,6,7,7a-tetrahydro-4H-furo [3,2-d] [1,3,2]dioxaphosphinin-6-yl]-2-bromo-6-phenyl-5H-imidazo [1,2-a] purin-9-one]?
toxicity in wt retinal explants (wt explant cultures): no signs of toxicity; also recorded: not affected; photoreceptor death in rd2 retinal explants [1]: prevented photoreceptor death; IC50 (PKG2): 900 nM; Ki (PKG2): 450 nM; photoreceptor death in rd10 retinal explants [2]: prevented photoreceptor death; Ki (PKA2): 11000 nM; Ki (PKG1α): 35 nM; IC50 (CNGC): 25000 nM; inhibitory constants for CNGC and PKA isoforms 1 and 2 higher than those for PKG isoforms (CNGC; CNGC and PKA1/PKA2 versus PKG isoforms): 2-3 log units; Ki (PDE1B): 2500 nM; photoreceptor death in rd1 retinal explants ([3]; FIG. 1B): reduced photoreceptor death; also recorded: preserved the viability; toxicity in the inner retina ([3]; organotypic retinal explants, data not shown): no evidence of DF003 toxicity; Ki (PKG1β): 30 nM; Ki (PDE5): 4100 nM; Ki (PDE2): 800 nM; Ki (PDE10): 5000 nM; half-life [4]: ~15 min; Ki (PDE4): 8100 nM; lowest concentration that still reduced the death of rd1 photoreceptor-like cells ([5]; LP-DF003 dose expressed as corresponding DF003 concentration): 100 nM; protective effect on rd1 photoreceptor-like cells ([5]; cell culture, FIG. 1A): preserved the viability; rd1 photoreceptor survival (rd1 mice): did not show any improvement; also recorded: had no effect; effect on wild-type photoreceptor-like cells (toxicity) [6]: not affected; Ki (PKA1): > 50000 nM

With `Nc1nc2c(nc(Br)n2[C@@H]2O[C@@H]3COP(O)(=S)O[C@H]3[C@H]2O)c(=O)[nH]1` (stereo partly drawn) [Rp-8-Br-cGMPS] as the compound, how does the “protection of rd1 and rd2 photoreceptors” value [7] read?
Its value is “some protection”.
